Patent US20180072997A1, “INHIBITORS OF HUMAN IMMUNODEFICIENCY VIRUS REPLICATION” (ViiV HEATHCARE UK (NO.5) LIMITED, priority 2015, published 2018)

What was measured:
[1] = tested on: recombinant NL4-3 virus (Renilla luciferase in nef) in MT-2 cells; experiment: whole plant or invertebrate; type: cell-based, HIV; conditions: Renilla, NL43, MT-2 cells infected for 4-5 days with recombinant NL4-3 Renilla luciferase virus; luciferase activity
Summary of the method: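 MT-2 cells infected for 4-5 days with NL4-3 reporter virus (Renilla luciferase replacing part of nef, produced by transfection of 293T cells) in the presence of serial compound dilutions. Antiviral activity quantified by luciferase activity read with a live-cell substrate.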

[2] = Compound cytotoxicity, XTT-based colorimetric assay; type: cell-based; conditions: human, uninfected MT2 cells, day 4, XTT
Summary of the method: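 Run under the antiviral-assay protocol but without virus. Viability was read on day 4 and CC50 values were derived from the readout.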

Row | SMILES | EC50 [1] | CC50 at 4 days [2]
1 | CN(C(=O)[C@H](Cc1cc(F)cc(F)c1)NC(=O)NS(=O)(=O)N[C@@H](Cc1cc(F)cc(F)c1)C(=O)N(C)c1ccc(C(C)(C)C)cc1)c1ccc(C(C)(C)C)cc1 [Example 168] | 0.15 µM | 16.2 µM
2 | CN(C(=O)[C@H](Cc1ccccc1)NC(=O)c1ccc(F)c(C(=O)N[C@@H](Cc2ccccc2)C(=O)N(C)c2ccc3scnc3c2)c1)c1ccc2scnc2c1 [Example 169] | 0.06 µM | 4.5 µM
3 | C=CCN(C(=O)[C@H](Cc1cc(F)cc(F)c1)NC(=O)CCC(=O)N[C@@H](Cc1cc(F)cc(F)c1)C(=O)N(CC=C)c1ccc(OC)cc1)c1ccc(OC)cc1 [Example 170] | 7.66 µM | 28.4 µM
4 | C=CCN(C(=O)[C@H](Cc1cc(F)cc(F)c1)NC(=O)CC(C)(C)CC(=O)N[C@@H](Cc1cc(F)cc(F)c1)C(=O)N(CC=C)c1ccc(OC)cc1)c1ccc(OC)cc1 [Example 171] | 100 µM | ≥ 100 µM
5 | Cc1ccc(N(C)C(=O)[C@H](Cc2cc(F)cc(F)c2)NC(=O)NS(=O)(=O)N[C@@H](Cc2cc(F)cc(F)c2)C(=O)N(C)c2ccc(C)nc2)cn1 [Example 172] | 0.58 µM | ≥ 100 µM
6 | CN(C(=O)[C@H](Cc1cc(F)cc(F)c1)NC(=O)NS(=O)(=O)N[C@@H](Cc1cc(F)cc(F)c1)C(=O)N(C)c1ccc(=O)n(C)c1)c1ccc(=O)n(C)c1 [Example 174] | 100 µM | ≥ 100 µM
7 | CN(C(=O)[C@H](Cc1cc(F)cc(F)c1)NC(=O)NS(=O)(=O)N[C@@H](Cc1cc(F)cc(F)c1)C(=O)N(C)c1ccc2sc(=O)[nH]c2c1)c1ccc2sc(=O)[nH]c2c1 [Example 175] | 0.45 µM | ≥ 100 µM
8 | COc1ccc(N(C)C(=O)[C@H](Cc2cc(F)cc(F)c2)NC(=O)NS(=O)(=O)N[C@@H](Cc2cc(F)cc(F)c2)C(=O)N(C)c2ccc(OC)nc2)cn1 [Example 176] | 0.04 µM | ≥ 100 µM
9 | CN(C(=O)[C@H](Cc1cc(F)cc(F)c1)NC(=O)NS(=O)(=O)N[C@@H](Cc1cc(F)cc(F)c1)C(=O)N(C)c1ccc2snnc2c1)c1ccc2snnc2c1 [Example 177] | 0.27 µM | 88 µM
10 | CN(C(=O)[C@H](Cc1cc(F)cc(F)c1)NC(=O)CN1c2ccccc2N(CC(=O)N[C@@H](Cc2cc(F)cc(F)c2)C(=O)N(C)c2ccc3snnc3c2)S1(=O)=O)c1ccc2snnc2c1 [Example 178] | 0.02 µM | ≥ 100 µM
11 | CN(C(=O)[C@H](Cc1cc(F)cc(F)c1)NC(=O)c1ccc(F)c(C(=O)N[C@@H](Cc2cc(F)cc(F)c2)C(=O)N(C)c2ccc3snnc3c2)c1)c1ccc2snnc2c1 [Example 179] | 0.34 µM | ≥ 100 µM
12 | CCc1ccc(N(C)C(=O)[C@H](Cc2cc(F)cc(F)c2)NC(=O)NS(=O)(=O)N[C@@H](Cc2cc(F)cc(F)c2)C(=O)N(C)c2ccc(CC)nc2)cn1 [Example 180] | 0.03 µM | 80.1 µM
13 | CN(C(=O)[C@H](Cc1cc(F)cc(F)c1)NC(=O)NS(=O)(=O)N[C@@H](Cc1cc(F)cc(F)c1)C(=O)N(C)c1ccc(C2CC2)nc1)c1ccc(C2CC2)nc1 [Example 181] | 0.02 µM | 85.8 µM
14 | CCCc1ccc(N(C)C(=O)[C@H](Cc2cc(F)cc(F)c2)NC(=O)NS(=O)(=O)N[C@@H](Cc2cc(F)cc(F)c2)C(=O)N(C)c2ccc(CCC)cc2)cc1 [Example 182B] | 0.02 µM | 13.4 µM
15 | Cc1ccc(N(C)C(=O)[C@H](Cc2cc(F)cc(F)c2)NC(=O)NS(=O)(=O)N[C@@H](Cc2cc(F)cc(F)c2)C(=O)N(C)c2ccc(C)cn2)nc1 [Example 182] | 0.4 µM | 97.9 µM
16 | CN(C(=O)[C@H](Cc1cc(F)cc(F)c1)NC(=O)NS(=O)(=O)N[C@@H](Cc1cc(F)cc(F)c1)C(=O)N(C)c1ccc(N2CCOCC2)cc1)c1ccc(N2CCOCC2)cc1 [Example 183] | 0.09 µM | 78.9 µM
17 | Cc1ccc(N(C)C(=O)[C@H](Cc2cc(F)cc(F)c2)NC(=O)c2ccc(F)c(C(=O)N[C@@H](Cc3cc(F)cc(F)c3)C(=O)N(C)c3ccc(C)nc3)c2)cn1 [Example 184] | 0.19 µM | 11.1 µM
18 | CN(C(=O)[C@H](Cc1cc(F)cc(F)c1)NC(=O)NS(=O)(=O)N[C@@H](Cc1cc(F)cc(F)c1)C(=O)N(C)c1ccc2c(cnn2C)c1)c1ccc2c(cnn2C)c1 [Example 185] | 0.08 µM | 96 µM
19 | CN(C(=O)[C@H](Cc1cc(F)cc(F)c1)NC(=O)NS(=O)(=O)N[C@@H](Cc1cc(F)cc(F)c1)C(=O)N(C)c1ccc2c(c1)ncn2C)c1ccc2c(c1)ncn2C [Example 186] | 6.15 µM | ≥ 100 µM
20 | C=CCN(C(=O)[C@H](Cc1cc(F)cc(F)c1)NS(=O)(=O)c1cccc(S(=O)(=O)N[C@@H](Cc2cc(F)cc(F)c2)C(=O)N(CC=C)c2ccc(OC)cc2)c1)c1ccc(OC)cc1 [Example 187] | 3.78 µM | ≥ 100 µM

Row | SMILES | EC50 [1] | CC50 at 4 days [2]
21 | CN(C(=O)[C@H](Cc1cc(F)cc(F)c1)NC(=O)NS(=O)(=O)N[C@@H](Cc1cc(F)cc(F)c1)C(=O)N(C)c1ccc(OC(F)(F)F)cc1)c1ccc(OC(F)(F)F)cc1 [Example 189] | 0.01 µM | 8.2 µM
22 | C=CCN(C(=O)[C@H](Cc1cc(F)cc(F)c1)NC(=O)c1ccccc1C(=O)N[C@@H](Cc1cc(F)cc(F)c1)C(=O)N(CC=C)c1ccc(OC)cc1)c1ccc(OC)cc1 [Example 191] | 1.79 µM | ≥ 100 µM
23 | C=CCN(C(=O)[C@H](Cc1cc(F)cc(F)c1)NC(=O)c1cc(F)c(F)cc1C(=O)N[C@@H](Cc1cc(F)cc(F)c1)C(=O)N(CC=C)c1ccc(OC)cc1)c1ccc(OC)cc1 [Example 192] | 7.24 µM | 58.2 µM
24 | C=CCN(C(=O)[C@H](Cc1cc(F)cc(F)c1)NS(=O)(=O)c1ccccc1S(=O)(=O)N[C@@H](Cc1cc(F)cc(F)c1)C(=O)N(CC=C)c1ccc(OC)cc1)c1ccc(OC)cc1 [Example 193] | 1.74 µM | ≥ 33.3 µM
25 | C=CCN(C(=O)[C@H](Cc1cc(F)cc(F)c1)NC(=O)NS(=O)(=O)N[C@@H](Cc1cc(F)cc(F)c1)C(=O)N(CC=C)c1ccc(OC)nc1)c1ccc(OC)nc1 [Example 194] | 0.58 µM | 41.9 µM
26 | Cc1ccc(N(C)C(=O)[C@H](Cc2cc(F)cc(F)c2)NC(=O)CN2c3ccccc3N(CC(=O)N[C@@H](Cc3cc(F)cc(F)c3)C(=O)N(C)c3ccc(C)nc3)S2(=O)=O)cn1 [Example 195] | 0.02 µM | 54 µM
27 | COc1ccc(N(C)C(=O)[C@H](Cc2cc(F)cc(F)c2)NC(=O)c2ccc(F)c(C(=O)N[C@@H](Cc3cc(F)cc(F)c3)C(=O)N(C)c3ccc(OC)nc3)c2)cn1 [Example 196] | 0.37 µM | ≥ 100 µM
28 | COc1ccc(N(C)C(=O)[C@H](Cc2cc(F)cc(F)c2)NC(=O)CN2c3ccccc3N(CC(=O)N[C@@H](Cc3cc(F)cc(F)c3)C(=O)N(C)c3ccc(OC)nc3)S2(=O)=O)cn1 [Example 197] | 0.01 µM | 9.3 µM
29 | CN(C(=O)[C@H](Cc1cc(F)cc(F)c1)NC(=O)NS(=O)(=O)N[C@@H](Cc1cc(F)cc(F)c1)C(=O)N(C)c1ccc(C2CC2)cc1)c1ccc(C2CC2)cc1 [Example 198] | 0.01 µM | 12.5 µM
30 | CN(C(=O)[C@H](Cc1cc(F)cc(F)c1)NC(=O)NS(=O)(=O)N[C@@H](Cc1cc(F)cc(F)c1)C(=O)N(C)c1ccc(C(F)(F)F)nc1)c1ccc(C(F)(F)F)nc1 [Example 199] | 0.47 µM | 46.7 µM
31 | COc1ccc(N(C)C(=O)[C@H](Cc2cc(F)cc(F)c2)NS(=O)(=O)CS(=O)(=O)N[C@@H](Cc2cc(F)cc(F)c2)C(=O)N(C)c2ccc(OC)cc2)cc1 [Example 201] | 0.48 µM | 12.5 µM
32 | CN(C(=O)[C@H](Cc1cc(F)cc(F)c1)NS(=O)(=O)CS(=O)(=O)N[C@@H](Cc1cc(F)cc(F)c1)C(=O)N(C)c1ccc2scnc2c1)c1ccc2scnc2c1 [Example 202] | 0.08 µM | ≥ 100 µM
33 | CN(C(=O)[C@H](Cc1cc(F)cc(F)c1)NC(=O)NS(=O)(=O)N[C@@H](Cc1cc(F)cc(F)c1)C(=O)N(C)c1ccc2nccnc2c1)c1ccc2nccnc2c1 [Example 203] | 30.4 µM | ≥ 100 µM
34 | CCCN(C(=O)[C@H](Cc1cc(F)cc(F)c1)NC(=O)NS(=O)(=O)N[C@@H](Cc1cc(F)cc(F)c1)C(=O)N(CCC)c1ccc2nccnc2c1)c1ccc2nccnc2c1 [Example 204] | 15 µM | ≥ 33.3 µM
35 | CCc1ncc(N(C)C(=O)[C@H](Cc2cc(F)cc(F)c2)NC(=O)c2ccc(F)c(C(=O)N[C@@H](Cc3cc(F)cc(F)c3)C(=O)N(C)c3cnc(CC)nc3)c2)cn1 [Example 206] | 14.5 µM | ≥ 33.3 µM
36 | Cc1ncc(N(C)C(=O)[C@H](Cc2cc(F)cc(F)c2)NC(=O)NS(=O)(=O)N[C@@H](Cc2cc(F)cc(F)c2)C(=O)N(C)c2cnc(C)nc2)cn1 [Example 207] | 25 µM | ≥ 25 µM
37 | CCc1ncc(N(C)C(=O)[C@H](Cc2cc(F)cc(F)c2)NC(=O)NS(=O)(=O)N[C@@H](Cc2cc(F)cc(F)c2)C(=O)N(C)c2cnc(CC)nc2)cn1 [Example 208] | 16 µM | 37.7 µM
38 | CN(C(=O)[C@H](Cc1cc(F)cc(F)c1)NC(=O)CN1c2ccccc2N(CC(=O)N[C@@H](Cc2cc(F)cc(F)c2)C(=O)N(C)c2ccc3c(c2)ncn3C)S1(=O)=O)c1ccc2c(c1)ncn2C [Example 209] | 0.42 µM | ≥ 100 µM
39 | C=CCN(C(=O)[C@H](Cc1cc(F)cc(F)c1)NC(=O)c1ccccc1S(=O)(=O)N[C@@H](Cc1cc(F)cc(F)c1)C(=O)N(CC=C)c1ccc(OC)cc1)c1ccc(OC)cc1 [Example 210] | 10.1 µM | ≥ 100 µM
40 | C=CCN(C(=O)[C@H](Cc1cc(F)cc(F)c1)NC(=O)c1ccncc1C(=O)N[C@@H](Cc1cc(F)cc(F)c1)C(=O)N(CC=C)c1ccc(OC)cc1)c1ccc(OC)cc1 [Example 211] | 3.92 µM | 14 µM
